Source: PubChem BioAssay (NCI)
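48-hour exposure; five concentrations; linearly interpolated endpoints. At the GI50, growth is halved. TGI marks complete inhibition of growth.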

What was measured:
Experiment in all cases: NCI anticancer screen, dose series, 48 h
COLO 205 colon = test system: COLO 205 colon
SK-MEL-28 melanoma = test system: SK-MEL-28 melanoma
NCI-H226 lung = test system: NCI-H226 lung
SK-MEL-2 melanoma = test system: SK-MEL-2 melanoma
SF-295 CNS = test system: SF-295 CNS
SK-MEL-5 melanoma = test system: SK-MEL-5 melanoma
MALME-3M melanoma = test system: MALME-3M melanoma
HL-60(TB) leukemia = test system: HL-60(TB) leukemia
786-0 renal = test system: 786-0 renal
M14 melanoma = test system: M14 melanoma
HOP-62 NSCLC = test system: HOP-62 NSCLC
SNB-19 CNS = test system: SNB-19 CNS
SW-620 colon = test system: SW-620 colon
HT29 colon = test system: HT29 colon
M19-MEL melanoma = test system: M19-MEL melanoma
SK-OV-3 ovarian = test system: SK-OV-3 ovarian
DMS 114 small cell lung = test system: DMS 114 small cell lung
SF-539 CNS = test system: SF-539 CNS
IGROV1 ovarian = test system: IGROV1 ovarian
LOX IMVI melanoma = test system: LOX IMVI melanoma
RPMI-8226 leukemia = test system: RPMI-8226 leukemia
DMS 273 small cell lung = test system: DMS 273 small cell lung
TK-10 renal = test system: TK-10 renal
NCI-H460 lung = test system: NCI-H460 lung
KM20L2 colon = test system: KM20L2 colon
OVCAR-8 ovarian = test system: OVCAR-8 ovarian
UO-31 renal = test system: UO-31 renal
DLD-1 colon = test system: DLD-1 colon
OVCAR-3 ovarian = test system: OVCAR-3 ovarian
SNB-75 CNS = test system: SNB-75 CNS
MOLT-4 leukemia = test system: MOLT-4 leukemia
EKVX NSCLC = test system: EKVX NSCLC
A549 NSCLC = test system: A549 NSCLC
U251 CNS = test system: U251 CNS
CCRF-CEM leukemia = test system: CCRF-CEM leukemia
KM12 colon = test system: KM12 colon
HOP-18 NSCLC = test system: HOP-18 NSCLC
ACHN renal = test system: ACHN renal
NCI-H23 lung = test system: NCI-H23 lung
K-562 leukemia = test system: K-562 leukemia
HCT-15 colon = test system: HCT-15 colon
HCT-116 colon = test system: HCT-116 colon
UACC-257 melanoma = test system: UACC-257 melanoma
NCI-H522 lung = test system: NCI-H522 lung
SN12C renal = test system: SN12C renal
RXF 393 renal = test system: RXF 393 renal
UACC-62 melanoma = test system: UACC-62 melanoma
SNB-78 CNS = test system: SNB-78 CNS
SF-268 CNS = test system: SF-268 CNS
SR leukemia = test system: SR leukemia
OVCAR-5 ovarian = test system: OVCAR-5 ovarian
HOP-92 NSCLC = test system: HOP-92 NSCLC
CAKI-1 renal = test system: CAKI-1 renal
LXFL 529 NSCLC = test system: LXFL 529 NSCLC
OVCAR-4 ovarian = test system: OVCAR-4 ovarian
HCC-2998 colon = test system: HCC-2998 colon
A498 renal = test system: A498 renal

O=C([O-])c1cc(I)cc(I)c1[OH2+].O=C([O-])c1cc(I)cc(I)c1[OH2+].[Mn+2]
GI50 (COLO 205 colon): > 100 µM
TGI (COLO 205 colon): > 100 µM
GI50 (SK-MEL-28 melanoma): > 100 µM
TGI (SK-MEL-28 melanoma): > 100 µM
GI50 (NCI-H226 lung): 33.7 µM
TGI (NCI-H226 lung): 74.1 µM
GI50 (SK-MEL-2 melanoma): 48.5 µM
TGI (SK-MEL-2 melanoma): > 100 µM
GI50 (SF-295 CNS): 33.5 µM
TGI (SF-295 CNS): > 100 µM
GI50 (SK-MEL-5 melanoma): > 100 µM
TGI (SK-MEL-5 melanoma): > 100 µM
GI50 (MALME-3M melanoma): 33.9 µM
TGI (MALME-3M melanoma): > 100 µM
GI50 (HL-60(TB) leukemia): > 100 µM
TGI (HL-60(TB) leukemia): > 100 µM
GI50 (786-0 renal): 51 µM
TGI (786-0 renal): > 100 µM
GI50 (M14 melanoma): 42.9 µM
TGI (M14 melanoma): > 100 µM
GI50 (HOP-62 NSCLC): 35.2 µM
TGI (HOP-62 NSCLC): > 100 µM
GI50 (SNB-19 CNS): 29 µM
TGI (SNB-19 CNS): 87.7 µM
GI50 (SW-620 colon): 53.2 µM
TGI (SW-620 colon): > 100 µM
GI50 (HT29 colon): 97.8 µM
TGI (HT29 colon): > 100 µM
GI50 (M19-MEL melanoma): 81.7 µM
TGI (M19-MEL melanoma): > 100 µM
GI50 (SK-OV-3 ovarian): 20 µM
TGI (SK-OV-3 ovarian): 44.2 µM
GI50 (DMS 114 small cell lung): 32 µM
TGI (DMS 114 small cell lung): > 100 µM
GI50 (SF-539 CNS): 24.8 µM
TGI (SF-539 CNS): 60 µM
GI50 (IGROV1 ovarian): 19.4 µM
TGI (IGROV1 ovarian): 49.4 µM
GI50 (LOX IMVI melanoma): 46.2 µM
TGI (LOX IMVI melanoma): > 100 µM
GI50 (RPMI-8226 leukemia): > 100 µM
TGI (RPMI-8226 leukemia): > 100 µM
GI50 (DMS 273 small cell lung): 37.7 µM
TGI (DMS 273 small cell lung): > 100 µM
GI50 (TK-10 renal): 32.1 µM
TGI (TK-10 renal): > 100 µM
GI50 (NCI-H460 lung): 64 µM
TGI (NCI-H460 lung): > 100 µM
GI50 (KM20L2 colon): > 100 µM
TGI (KM20L2 colon): > 100 µM
GI50 (OVCAR-8 ovarian): 34.2 µM
TGI (OVCAR-8 ovarian): > 100 µM
GI50 (UO-31 renal): 35.6 µM
TGI (UO-31 renal): > 100 µM
GI50 (DLD-1 colon): > 100 µM
TGI (DLD-1 colon): > 100 µM
GI50 (OVCAR-3 ovarian): 24 µM
TGI (OVCAR-3 ovarian): 77.6 µM
GI50 (SNB-75 CNS): 60.1 µM
TGI (SNB-75 CNS): 99.8 µM
GI50 (MOLT-4 leukemia): > 100 µM
TGI (MOLT-4 leukemia): > 100 µM
GI50 (EKVX NSCLC): 72.3 µM
TGI (EKVX NSCLC): > 100 µM
GI50 (A549 NSCLC): 56.4 µM
TGI (A549 NSCLC): > 100 µM
GI50 (U251 CNS): 21.5 µM
TGI (U251 CNS): 61.3 µM
GI50 (CCRF-CEM leukemia): > 100 µM
TGI (CCRF-CEM leukemia): > 100 µM
GI50 (KM12 colon): 67.3 µM
TGI (KM12 colon): > 100 µM
GI50 (HOP-18 NSCLC): > 100 µM
TGI (HOP-18 NSCLC): > 100 µM
GI50 (ACHN renal): 20.3 µM
TGI (ACHN renal): 59 µM
GI50 (NCI-H23 lung): 30.4 µM
TGI (NCI-H23 lung): 89.4 µM
GI50 (K-562 leukemia): > 100 µM
TGI (K-562 leukemia): > 100 µM
GI50 (HCT-15 colon): > 100 µM
TGI (HCT-15 colon): > 100 µM
GI50 (HCT-116 colon): 36.7 µM
TGI (HCT-116 colon): > 100 µM
GI50 (UACC-257 melanoma): 18.8 µM
TGI (UACC-257 melanoma): 43.1 µM
GI50 (NCI-H522 lung): 22.2 µM
TGI (NCI-H522 lung): 69.2 µM
GI50 (SN12C renal): 18.9 µM
TGI (SN12C renal): 42.9 µM
GI50 (RXF 393 renal): 17.8 µM
TGI (RXF 393 renal): 40.2 µM
GI50 (UACC-62 melanoma): 45.7 µM
TGI (UACC-62 melanoma): > 100 µM

COc1ccc(/C(=N/O)C(c2ccc(OC)cc2)C2C(=O)Oc3ccccc32)cc1 (stereo not given)
TGI (COLO 205 colon): 7.05 µM
TGI (SK-MEL-28 melanoma): > 100 µM
TGI (SNB-78 CNS): > 100 µM
TGI (NCI-H226 lung): > 100 µM
TGI (SK-MEL-2 melanoma): > 100 µM
TGI (SF-295 CNS): 11.7 µM
TGI (SK-MEL-5 melanoma): 68.2 µM
TGI (MALME-3M melanoma): > 100 µM
TGI (HL-60(TB) leukemia): > 100 µM
TGI (786-0 renal): > 100 µM
TGI (M14 melanoma): > 100 µM
TGI (SF-268 CNS): > 100 µM
TGI (SW-620 colon): > 100 µM
TGI (SR leukemia): > 100 µM
TGI (HT29 colon): > 100 µM
TGI (M19-MEL melanoma): > 100 µM
TGI (SK-OV-3 ovarian): > 100 µM
TGI (OVCAR-5 ovarian): > 100 µM
TGI (DMS 114 small cell lung): 79.9 µM
TGI (SF-539 CNS): > 100 µM
TGI (IGROV1 ovarian): > 100 µM
TGI (LOX IMVI melanoma): > 100 µM
TGI (RPMI-8226 leukemia): > 100 µM
TGI (HOP-92 NSCLC): 80.6 µM
TGI (TK-10 renal): > 100 µM
TGI (NCI-H460 lung): > 100 µM
TGI (OVCAR-8 ovarian): > 100 µM
TGI (CAKI-1 renal): > 100 µM
TGI (LXFL 529 NSCLC): > 100 µM
TGI (UO-31 renal): > 100 µM
TGI (DLD-1 colon): > 100 µM
TGI (SNB-75 CNS): > 100 µM
TGI (MOLT-4 leukemia): > 100 µM
TGI (EKVX NSCLC): > 100 µM
TGI (A549 NSCLC): > 100 µM
TGI (U251 CNS): > 100 µM
TGI (CCRF-CEM leukemia): > 100 µM
TGI (KM12 colon): > 100 µM
TGI (HOP-18 NSCLC): > 100 µM
TGI (OVCAR-4 ovarian): > 100 µM
TGI (ACHN renal): > 100 µM
TGI (NCI-H23 lung): > 100 µM
TGI (K-562 leukemia): > 100 µM
TGI (HCT-15 colon): > 100 µM
TGI (HCT-116 colon): > 100 µM
TGI (UACC-257 melanoma): > 100 µM
TGI (NCI-H522 lung): > 100 µM
TGI (SN12C renal): > 100 µM
TGI (HCC-2998 colon): > 100 µM
TGI (A498 renal): > 100 µM
TGI (UACC-62 melanoma): > 100 µM
